In US20240246913A1, “2-CARBOXYL-INDOLE INHIBITORS OF METALLO-BETA-LACTAMASES” (Oxford University Innovation Limited, priority 2021, published 2024):

Key:
[1] = biological target: VIM-2 (Escherichia coli, UniProt Q5U7L7); assay: MBL inhibition, FC-5 fluorescence assay, VIM-2; type: biochemical; details: FC-5 cephalosporin substrate, ranges of obtained pIC50, read-out: pIC50 VIM-2 (converted)
Outline: (§1)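 Dose-response fits (log inhibitor vs normalized response, variable slope) used initial reaction rates, each concentration in 4 replicates within the plate. Rates came from fluorophore release at ex 380/em 460 nm as the MBL hydrolyzed FC-5.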

[2] = biological target: IMP-1 (Serratia marcescens, UniProt P52699); assay: MBL inhibition, FC-5 fluorescence assay, IMP-1; type: biochemical; details: FC-5 cephalosporin substrate, fluorescence; ranges of obtained pIC50; read-out: pIC50 IMP-1 (converted)
Outline: as §1

[3] = Plasma protein binding, equilibrium dialysis, mouse plasma; type: in vitro ADME; details: pH 7.4, equilibrium dialysis (RED) 4 hours at 37° C., read-out: Plasma protein binding, fu, Mouse
Outline: (§2)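 Compound at 10 μM in plasma dialysed against 67 mM phosphate buffer pH 7.4 for 4 h at 37° C. in RED device; unbound fraction from buffer and plasma levels by LC-MS/MS. Plasma stability checked in parallel over 4 h at 37° C. versus frozen control.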

[4] = system: bacteria; assay: Thigh and/or septicaemia mouse model of infection, with meropenem; type: in vivo; details: NMRI mice; single dose with meropenem subcutaneous 1 h after inoculation; endpoint 3 h after treatment initiation
Experimental: Female NMRI mice (5-6 weeks old, 26-30 gram, n=5) were rendered neutropenic via intraperitoneal injection of two doses of cyclophosphamide on day 4 and day 1 before infection. The animals were infected via intramuscular injection of an inoculum containing 10^6 CFU/mL of bacteria in the left thigh. The animals were treated with a single dose of meropenem subcutaneous +/− inhibitor 1 h after inoculation, and animals were either euthanised at the start of treatment or at the study endpoint at 3 h after treatment initiation. Clinical scores were monitored at 1 and 4 hours post inoculation and were in all cases mild or moderate. Thighs were aseptically removed from the animals, homogenised, diluted, and plated for incubation. Bacterial counting was performed after 18-22 h of incubation at 35° C. in ambient air.
Immunocompetent female NMRI mice mice (5-6 weeks old, 26-30 gram, n=5) were inoculated intraperitoneally with 0.5 ml inoculum containing 5×10^5 CFU suspended in 5% porcine mucin.
The animals were treated with a single dose of meropenem subcutaneous+/−metallo-b-lactamase inhibitor intravenous 1 h after inoculation. Animals were either euthanised at the start of treatment or at the study endpoint at 3 h after treatment initiation. Clinical scores were monitored at 1 and 4 hours post inoculation and were in all cases mild or moderate. Mice were anaesthetised anesthetized with a buprenorphine/tiletamine/zolazepam cocktail and bled, then euthanized and the peritoneum flushed with 2 ml sterile 0.9% NaCl and collected. The blood and/or peritoneal flush were serially diluted and plated for incubation. Bacterial counting was performed after 18-22 h of incubation at 35° C. in ambient air.

[5] = biological target: NDM-1 (Klebsiella pneumoniae, UniProt C7C422); assay: MBL inhibition, FC-5 fluorescence assay, NDM-1; type: biochemical; details: FC-5 cephalosporin substrate, fluorescence; ranges of obtained pIC50; read-out: pIC50 NDM-1 (converted)
Outline: as §1

[6] = Plasma protein binding, equilibrium dialysis, human plasma; type: in vitro ADME; details: pH 7.4, equilibrium dialysis (RED) 4 hours at 37° C., read-out: Plasma protein binding, fu, Human
Outline: as §2

[7] = biological target: VIM-1 (Pseudomonas aeruginosa, UniProt A0A0F7KYQ8); assay: MBL inhibition, FC-5 fluorescence assay, VIM-1; type: biochemical; details: FC-5 cephalosporin substrate, ranges of obtained pIC50, read-out: pIC50 VIM-1 (converted)
Outline: as §1

[8] = Metabolic stability in mouse hepatocytes; type: in vitro ADME; details: cryopreserved mouse hepatocytes, 1 μM compound, 37° C., up to 90 min, read-out: Metabolic stability in hepatocytes, in vitro t1/2, Mouse
Experimental: (§3) Metabolic stability assays were performed in cryopreserved human and mouse hepatocytes. The hepatocytes were thawed and added to “Thawing media”, and centrifuged to pellet the hepatocytes. The cell pellet was taken up in Williams medium E (Invitrogen A1217601), the number of cells was calculated and adjusted to 1.0×10^6 cells/mi. The incubation was carried out on a heater-shaker at […], in a 24-well Picoplate (round bottom, PerkinElmer), using an incubation volume of […]. Thus, to obtain a final compound concentration of 1 μM, 0.7 μl of the 1 mM compound stock solution was pipetted to the wells of the plate. Reaction was initiated by adding 700 μl of cell suspension. Samples were incubated at 37° C. for […] and a zero sample was taken, i.e. 100 μl sample was removed to a 96-well plate and the reaction was quenched by adding 100 μl of 100% MeCN containing 50 nM Warfarin as an internal control. Consecutive samples were taken at time-points 5 min, 15 min, 30 min, 60 min, and 90 min. After finishing the experiment, samples were centrifuged at 3000 rpm for 15 min and before analysis by LC-MS/MS (Waters Corp, Milford, MA, USA).

[9] = Metabolic stability in human hepatocytes; type: in vitro ADME; details: cryopreserved human hepatocytes, 1 μM compound, 37° C., up to 90 min, read-out: Metabolic stability in hepatocytes, in vitro t1/2, Human
Experimental: as §3

[10] = system: Escherichia coli NDM-1; assay: Antibiotic susceptibility testing (MIC), EC NDM-1; type: cell-based; details: agar or broth dilution (CLSI/EUCAST)
Experimental: (§4) Antibiotic susceptibility testing was performed using the agar or broth dilution method, in line with the Clinical and Laboratory Standards Institute (CLSI) and European Committee on Antimicrobial Susceptibility Testing (EUCAST) requirements.

[11] = system: Acinetobacter baumannii NDM-1; assay: Antibiotic susceptibility testing (MIC), AB NDM-1; type: cell-based; details: agar or broth dilution (CLSI/EUCAST)
Experimental: as §4

[12] = system: Escherichia coli NDM-7; assay: Antibiotic susceptibility testing (MIC), EC NDM-7; type: cell-based; details: agar or broth dilution (CLSI/EUCAST)
Experimental: as §4

Sequence of NDM-1 (C7C422 29-270, looked up, species assumed): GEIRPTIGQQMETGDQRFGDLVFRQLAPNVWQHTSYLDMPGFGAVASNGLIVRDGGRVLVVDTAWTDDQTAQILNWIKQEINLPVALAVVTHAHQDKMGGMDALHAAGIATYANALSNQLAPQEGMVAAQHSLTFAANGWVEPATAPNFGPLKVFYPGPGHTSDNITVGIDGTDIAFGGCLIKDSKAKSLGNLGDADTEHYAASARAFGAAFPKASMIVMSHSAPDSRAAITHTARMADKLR
Sequence of IMP-1 (P52699 19-246, looked up, species assumed): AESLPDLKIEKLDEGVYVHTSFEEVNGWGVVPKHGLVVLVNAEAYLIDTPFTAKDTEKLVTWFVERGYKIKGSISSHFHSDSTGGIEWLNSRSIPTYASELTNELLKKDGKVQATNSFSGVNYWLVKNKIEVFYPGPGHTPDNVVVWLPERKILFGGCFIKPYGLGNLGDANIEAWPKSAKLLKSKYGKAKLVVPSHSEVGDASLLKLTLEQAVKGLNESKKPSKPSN

Row | Structure (SMILES) | IC50 [1] [nM] | IC50 [2] [nM] | fraction unbound at 4 h, 10 μM [3] | Dose required to reduce minim 1 log fold CFU in a thigh and or a sepsis animal model [4] | IC50 [5] [nM] | fraction unbound at 4 h, 10 μM [6] | IC50 [7] [nM] | half-life at 1 μM [8] [h] | half-life at 1 μM [9] [h] | MIC values EC NDM-1 [10] | MIC values AB NDM-1 [11] | MIC values EC NDM-7 [12]
1 | CC(NC(=O)c1ccc(CN)cc1)c1cccc2c(-c3ccc(CN4CCOCC4)nc3)c(C(=O)O)[nH]c12 (stereo not shown) [IC-11, 7-(1-((4-(Aminomethyl)benzoyl)amino)ethyl)-3-(6-(morpholin-4-ylmethyl)pyridin-3-yl)-1H-indole-2-carboxylic acid] | 1 to 10 | > 10 | 0.005 to 0.05 | B (B = 30-10 mg/kg) | < 0.1 | > 0.25 | > 10 | > 6.67 | > 6.67 |  |  | 
2 | C[C@@H](c1cccc2c(-c3ccc(NS(C)(=O)=O)c(F)c3)c(C(=O)O)[nH]c12)N1C[C@]2(C[C@@H](CN)C2)OC1=O [IC-14, 7-((S)-1-((2S,4r)-2-(Aminomethyl)-6-oxo-5-oxa-7-azaspiro[3.4]octan-7-yl)ethyl)-3-(3-fluoro-4-(methylsulfonamido)phenyl)-1H-indole-2-carboxylic acid] | 0.1 to 1 | > 10 | 0.05 to 0.25 | C (C = 5-10 mg/kg) | < 0.1 | 0.05 to 0.25 | 0.1 to 1 | 2.5 to 6.67 | > 6.67 | A (A = MIC values ≤ 1) | B (B MIC values 2 ÷ 8) | A (A = MIC values ≤ 1)
3 | COc1cc(-c2c(C(=O)O)[nH]c3c([C@H](C)N4C[C@]5(C[C@@H](CN)C5)OC4=O)cccc23)ccn1 [IC-17, 7-((1S)-1-(2-(aminomethyl)-6-oxo-5-oxa-7-azaspiro[3.4]octan-7-yl)ethyl)-3-(2-methoxypyridin-4-yl)-1H-indole-2-carboxylic acid] | < 0.1 | > 10 | 0.005 to 0.05 | B (B = 30-10 mg/kg) | 0.1 to 1 | 0.05 to 0.25 | 1 to 10 | 2.5 to 6.67 | > 6.67 | A (A = MIC values ≤ 1) | B (B MIC values 2 ÷ 8) | A (A = MIC values ≤ 1)
4 | C[C@@H](c1cccc2c(-c3ccnc(O)c3)c(C(=O)O)[nH]c12)N1C[C@]2(C[C@@H](CN)C2)OC1=O [IC-18, 7-((S)-1-((2S,4r)-2-(aminomethyl)-6-oxo-5-oxa-7-azaspiro[3.4]octan-7-yl)ethyl)-3-(2-hydroxypyridin-4-yl)-1H-indole-2-carboxylic acid] | 0.1 to 1 | > 10 | 0.005 to 0.05 | C (C = 5-10 mg/kg) | 0.1 to 1 | > 0.25 | 1 to 10 | > 6.67 | < 2.5 | A (A = MIC values ≤ 1) | B (B MIC values 2 ÷ 8) | A (A = MIC values ≤ 1)
5 | C[C@@H](c1cccc2c(-c3cncc(O)c3)c(C(=O)O)[nH]c12)N1C[C@]2(C[C@@H](CN)C2)OC1=O [IC-23, 7-((S)-1-((2S,4r)-2-(aminomethyl)-6-oxo-5-oxa-7-azaspiro[3.4]octan-7-yl)ethyl)-3-(5-hydroxypyridin-3-yl)-1H-indole-2-carboxylic acid] | 0.1 to 1 | > 10 | 0.005 to 0.05 | C (C = 5-10 mg/kg) | 1 to 10 | 0.05 to 0.25 | 1 to 10 |  |  | A (A = MIC values ≤ 1) | B (B MIC values 2 ÷ 8) | A (A = MIC values ≤ 1)
6 | C[C@@H](c1cccc2c(-c3cc[nH]c(=O)c3)c(C(=O)O)[nH]c12)n1cc(CN2CC(N)C2)oc1=O [IC-54, 7-[(1S)-1-{5-[(3-Aminoazetidin-1-yl)methyl]-2-oxo-2,3-dihydro-1,3-oxazol-3-yl}ethyl]-3-(2-oxo-1,2-dihydropyridin-4-yl)-1H-indole-2-carboxylic acid] | 1 to 10 | > 10 | > 0.25 | C (C = 5-10 mg/kg) | 0.1 to 1 | > 0.25 | > 10 |  |  | A (A = MIC values ≤ 1) | B (B MIC values 2 ÷ 8) | A (A = MIC values ≤ 1)
7 | COc1cc(-c2c(C(=O)O)[nH]c3c([C@H](C)n4cc(CN5CC(N)C5)oc4=O)cccc23)ccn1 [IC-56, 7-[(1S)-1-{5-[(3-aminoazetidin-1-yl)methyl]-2-oxo-2,3-dihydro-1,3-oxazol-3-yl}ethyl]-3-(2-methoxypyridin-4-yl)-1H-indole-2-carboxylic acid] | 0.1 to 1 | > 10 | 0.005 to 0.05 | C (C = 5-10 mg/kg) | < 0.1 | 0.05 to 0.25 | > 10 | < 2.5 | > 6.67 | A (A = MIC values ≤ 1) | B (B MIC values 2 ÷ 8) | A (A = MIC values ≤ 1)
8 | C[C@H](NC(=O)c1ccc(CN)cc1)c1cccc2c(-c3ccc(CN4CCOCC4)nc3)c(C(=O)O)[nH]c12 [IC-59, 7-((1S)-1-((4-(aminomethyl)benzoyl)amino)ethyl)-3-(6-(morpholin-4-ylmethyl)pyridin-3-yl)-1H-indole-2-carboxylic acid] | < 0.1 | > 10 |  | B (B = 30-10 mg/kg) | < 0.1 |  | > 10 |  |  | A (A = MIC values ≤ 1) | A (A = MIC values ≤ 1) | A (A = MIC values ≤ 1)
9 | CC(C)c1cccc2c(-c3cc(Cl)cc(Cl)c3)c(C(=O)O)[nH]c12 [Prior Art Compound 76, reference compound] | 0.1 to 1 | > 10 | < 0.005 | A (A = >100 mg/kg) | 1 to 10 | < 0.005 | > 10 | < 2.5 | < 2.5 |  |  | 
